Data from ChEMBL document CHEMBL1201862, “PubChem BioAssay data set” (2004).
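How tested: cells in 96-well plates exposed to compound for 48 hours at five concentrations. The concentration for 50% growth inhibition is given as GI50.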 Calls of active or inactive are those of the source. Rule as the data show it: active = GI50 up to about 1.1 µM and inactive = higher.

What was measured:
Assay in all cases: NCI tumour cell line growth inhibition, 48 h
[1] = system: 786-0
[2] = system: UO-31
[3] = system: A549
[4] = system: Malme-3M
[5] = system: U-251
[6] = system: SF-295
[7] = system: HOP-62
[8] = system: CCRF-CEM
[9] = system: SN12C
[10] = system: SR
[11] = system: MOLT-4
[12] = system: LXFL 529
[13] = system: OVCAR-8
[14] = system: SK-MEL-5
[15] = system: SK-MEL-2
[16] = system: NCI-H23
[17] = system: ACHN
[18] = system: HOP-92
[19] = system: XF498
[20] = system: HCC 2998
[21] = system: HCT-15
[22] = system: SK-OV-3
[23] = system: NCI-H460
[24] = system: OVCAR-4
[25] = system: LOX IMVI
[26] = system: UACC-257
[27] = system: HL-60
[28] = system: NCI-H522
[29] = system: KM-20L2
[30] = system: EKVX
[31] = system: RXF 393
[32] = system: SK-MEL-28
[33] = system: SF-539
[34] = system: HT-29
[35] = system: SNB-75
[36] = system: SW-620
[37] = system: M14
[38] = system: DLD-1
[39] = system: UACC-62
[40] = system: TK-10
[41] = system: M19-MEL
[42] = system: HCT-116
[43] = system: KM12
[44] = system: IGROV-1
[45] = system: OVCAR-5
[46] = system: OVCAR-3
[47] = system: SNB-78
[48] = system: K562
[49] = system: CAKI-1
[50] = system: DMS-114
[51] = system: SF-268
[52] = system: DMS-273
[53] = system: RPMI-8226
[54] = system: SNB-19
[55] = system: A498
[56] = system: NCI-H226

Measured: GI50

O=S1(=O)CC#CC[C@@H](CO)[C@@H](CO)CC#CC1
> 100 µM: [21]
inactive: [1] > 100 µM | [2] > 100 µM | [3] > 100 µM | [4] 21.7 µM | [5] > 100 µM | [6] > 100 µM | [7] > 100 µM | [8] 22.5 µM | [9] > 100 µM | [10] 38.7 µM | [11] 42.5 µM | [12] 71.3 µM | [13] > 100 µM | [14] > 100 µM | [15] > 100 µM | [16] > 100 µM | [17] > 100 µM | [18] 31.5 µM | [19] > 100 µM | [20] > 100 µM | [22] > 100 µM | [23] > 100 µM | [24] > 100 µM | [25] 69.3 µM | [26] 91.6 µM | [27] 53.7 µM | [28] 17.9 µM | [29] > 100 µM | [30] > 100 µM | [31] > 100 µM | [32] 72.3 µM | [33] > 100 µM | [34] > 100 µM | [35] 82 µM | [36] 36.4 µM | [37] 40.1 µM | [38] > 100 µM | [39] > 100 µM | [40] > 100 µM | [41] 47.1 µM | [42] 61.2 µM | [43] > 100 µM | [44] 43.1 µM | [45] > 100 µM | [46] > 100 µM | [47] > 100 µM | [48] 59 µM

C=C(CS(=O)(=O)c1ccccc1)[P+](c1ccccc1)(c1ccccc1)c1ccccc1
23.6 µM: [21]
inactive: [1] 19.9 µM | [2] 27.5 µM | [3] 34.3 µM | [4] 12.1 µM | [5] > 10 µM | [6] 20.2 µM | [7] 28.1 µM | [49] 23.4 µM | [8] 5.22 µM | [9] 12.3 µM | [11] 16.6 µM | [13] 14.8 µM | [14] 13.6 µM | [15] > 100 µM | [50] 21.6 µM | [16] 20.4 µM | [17] 21.7 µM | [18] 24.5 µM | [19] 15 µM | [20] 20.8 µM | [51] 2.72 µM | [52] 16.4 µM | [22] 27.3 µM | [23] 22.1 µM | [24] 37.9 µM | [25] 13.5 µM | [26] 8.93 µM | [27] 9.16 µM | [28] 18.6 µM | [29] 17.5 µM | [30] 30.4 µM | [31] 19.2 µM | [32] 11.1 µM | [53] 3.06 µM | [54] 28.4 µM | [33] 23.5 µM | [55] 35.7 µM | [34] 18.2 µM | [35] 12.6 µM | [36] 18.2 µM | [37] 17.4 µM | [38] 21.4 µM | [39] 22.9 µM | [56] 16.4 µM | [40] 31.4 µM | [41] 17.3 µM | [42] 12.7 µM | [43] 14.7 µM | [44] 25.7 µM | [45] 33.9 µM | [46] 14.8 µM | [47] 38 µM | [48] 4.65 µM
